Test results published in patent EP0595557A1, “New substituted azetidinones as anti-inflammatory and antidegenerative agents” (MERCK & CO. INC., priority 1992, dated 1994).

Target: T1, Human Polymorphonuclear Leukocyte Elastase (Homo sapiens, UniProt P08246)
T1 construct: Crude extract of human polymorphonuclear leukocytes (PMN) containing elastase activity; from tissue; host or cells: human polymorphonuclear leukocytes (crude extract)
T1 sequence (P08246 30-267): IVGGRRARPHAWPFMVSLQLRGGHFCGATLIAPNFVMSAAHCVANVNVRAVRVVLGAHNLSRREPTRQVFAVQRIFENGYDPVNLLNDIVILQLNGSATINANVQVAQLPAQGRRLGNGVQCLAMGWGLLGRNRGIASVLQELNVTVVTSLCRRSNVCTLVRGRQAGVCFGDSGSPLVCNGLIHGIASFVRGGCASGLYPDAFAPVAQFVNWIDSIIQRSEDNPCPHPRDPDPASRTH
Test: Enzyme assay for inhibition of human polymorphonuclear leukocyte elastase via hydrolysis of Boc-AAPAN or Boc-AAPVN
Assay type: biochemical
Details: pH 7.5, second order rate constant for inactivation of the enzyme, expressed to the nearest thousand, read-out: Kobs/[I]
In short: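 Crude human PMN extract as enzyme source, with 0.2 mM Boc-AAPAN in 0.05M TES buffer pH 7.5. Inhibitors in DMSO were added to substrate before the extract, and rate was followed as ΔOD/min at 410 mµ. Values are kobs/I, the second-order inactivation rate constant (per mole per second).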

kinact/KI [M⁻¹ s⁻¹] | Compound
869000 | CCC[C@@H](NC(=O)N1C(=O)C(CC)(CC)[C@@H]1Oc1ccc(C(=O)NC2CC(C)(C)NC(C)(C)C2)cc1)c1ccc(C)cc1 [Compound 174]
1.06e+06 | CCC[C@@H](NC(=O)N1C(=O)C(CC)(CC)[C@@H]1Oc1ccc(C(=O)N(C)c2ccc(C(=O)O)cc2)cc1)c1ccc(C)cc1 [Compound 175]
3.23e+06 | CCC[C@@H](NC(=O)N1C(=O)C(CC)(CC)[C@@H]1Oc1ccc(C(=O)N(C)c2ccc(C(=O)NS(=O)(=O)c3ccccc3)cc2)cc1)c1ccc(C)cc1 [Compound 176]
2.2e+06 | CCC[C@@H](NC(=O)N1C(=O)C(CC)(CC)[C@@H]1Oc1ccc(C(=O)N(C)CCN(C)Cc2ccc(C#N)cc2)cc1)c1ccc(C)cc1 [Compound 177]
1.87e+06 | CCC[C@@H](NC(=O)N1C(=O)C(CC)(CC)[C@@H]1Oc1ccc(C(=O)N(C)CCN(C)Cc2ccc(C)cc2)cc1)c1ccc(C)cc1 [Compound 178]
2.45e+06 | CCC[C@@H](NC(=O)N1C(=O)C(CC)(CC)[C@@H]1Oc1ccc(C(=O)N(C)CCN(C)Cc2cccc(C#N)c2)cc1)c1ccc(C)cc1 [Compound 179]
905000 | CCC[C@@H](NC(=O)N1C(=O)C(CC)(CC)[C@@H]1Oc1ccc(C(=O)N(C)CCN(C)Cc2ccc(C(F)(F)F)cc2)cc1)c1ccc(C)cc1 [Compound 180]
564000 | CCC[C@@H](NC(=O)N1C(=O)C(CC)(CC)[C@@H]1Oc1ccc(C(=O)N(C)CCN(C)Cc2cccc(C(F)(F)F)c2)cc1)c1ccc(C)cc1 [Compound 181]
2.14e+06 | CCC[C@@H](NC(=O)N1C(=O)C(CC)(CC)[C@@H]1Oc1ccc(C(=O)N(C)CCN(C)Cc2ccc(F)cc2)cc1)c1ccc(C)cc1 [Compound 182]
977000 | CCC[C@@H](NC(=O)N1C(=O)C(CC)(CC)[C@@H]1Oc1ccc(C(=O)NC(C)[PH](=O)O)cc1)c1ccc(C)cc1 (stereo partly shown) [Compound 183]
755000 | CCC[C@@H](NC(=O)N1C(=O)C(CC)(CC)[C@@H]1Oc1ccc(C(=O)N[C@@H](CCCCN)C(=O)O)cc1)c1ccc(C)cc1 [Compound 184]
1.79e+06 | CCC[C@@H](NC(=O)N1C(=O)C(CC)(CC)[C@@H]1Oc1ccc(C(=O)N(C)CCN(C)CC2CC2)cc1)c1ccc(C)cc1 [Compound 185]
1.05e+06 | CCC[C@@H](NC(=O)N1C(=O)C(CC)(CC)[C@@H]1Oc1ccc(C(=O)N(C)CC(c2ccccc2)N(C)C)cc1)c1ccc(C)cc1 (stereo partly shown) [Compound 186]
1.75e+06 | CCC[C@@H](NC(=O)N1C(=O)C(CC)(CC)[C@@H]1Oc1ccc(C(=O)N(C)C)cc1)c1ccc(C)cc1 [Compound 187]
1.84e+06 | CCC[C@@H](NC(=O)N1C(=O)C(CC)(CC)[C@@H]1Oc1ccc(C(=O)N(C)Cc2ccccc2)cc1)c1ccc(C)cc1 [Compound 188]
1.88e+06 | CCC[C@@H](NC(=O)N1C(=O)C(CC)(CC)[C@@H]1Oc1ccc(C(=O)N(C)C2CCCN(Cc3ccccc3)C2)cc1)c1ccc(C)cc1 (stereo partly shown) [Compound 189]
1.8e+06 | CCC[C@@H](NC(=O)N1C(=O)C(CC)(CC)[C@@H]1Oc1ccc(C(=O)NOCc2ccccc2)cc1)c1ccc(C)cc1 [Compound 190]
2.54e+06 | CCC[C@@H](NC(=O)N1C(=O)C(CC)(CC)[C@@H]1Oc1ccc(C(=O)N(CCN(C)Cc2ccccc2)Cc2cccnc2)cc1)c1ccc(C)cc1 [Compound 191]
1.78e+06 | CCC[C@@H](NC(=O)N1C(=O)C(CC)(CC)[C@@H]1Oc1ccc(C(=O)N(C)CCN(C)Cc2ccc(OC)cc2)cc1)c1ccc(C)cc1 [Compound 192]
2.24e+06 | CCC[C@@H](NC(=O)N1C(=O)C(CC)(CC)[C@@H]1Oc1ccc(C(=O)N(CCN(C)Cc2ccccc2)Cc2ccncc2)cc1)c1ccc(C)cc1 [Compound 193]
2.47e+06 | CCC[C@@H](NC(=O)N1C(=O)C(CC)(CC)[C@@H]1Oc1ccc(C(=O)N(CCN(C)Cc2ccccc2)Cc2ccccn2)cc1)c1ccc(C)cc1 [Compound 194]
1.12e+06 | CCC[C@@H](NC(=O)N1C(=O)C(CC)(CC)[C@@H]1Oc1ccc(C(=O)N(C)CCN(C)Cc2ccc(C)cc2C)cc1)c1ccc(C)cc1 [Compound 195]
